Target: T1, Human ATX protein (Homo sapiens, UniProt Q13822)
T1 construct: made in house
Assay: ATX biochemical FRET assay with FS-3 substrate
Conditions: FS-3 2 μM, ATX 1.0 μg/mL, room temperature 2 hours, fluorescence 485/538 nm
Method in brief: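 Purified human ATX (1.0 μg/mL final) preincubated with compound 30 min at room temperature in Tris pH 7.4 buffer with NaCl, KCl, CaCl2, MgCl2 and 1 mg/mL fatty acid-free BSA. FS-3 added to 2 μM final; 2 h at room temperature in the dark, fluorescence at ex 485/em 538 nm.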

| SMILES | IC50 [µM] |
| --- | --- |
| CC(c1ccc2c(C#N)c(O[C@H]3CC[C@@H](C)CC3)ccc2c1)N1C2CCCC1CC(C(=O)O)C2 (stereo partly drawn) [Example 225, 9-(1-(5-cyano-6-((cis-4-methylcyclohexyl)oxy)naphthalen-2-yl)ethyl)-9-azabicyclo[3.3.1]nonane-3-carboxylic acid] | ≤ 0.1 |
| CC(c1ccc2c(C(F)F)c(O[C@H]3CC[C@@H](C)CC3)ccc2c1)N1C2CCCC1CC(C(=O)O)C2 (relative stereo) [Example 132, 9-(1-(5-(difluoromethyl)-6-((cis-4-methylcyclohexyl)oxy)naphthalen-2-yl)ethyl)-9-azabicyclo[3.3.1]nonane-3-carboxylic acid] | ≤ 0.1 |
| O=C(O)C1CCCC2CCN(Cc3ccc4c(C(F)(F)F)c(O[C@H]5CC[C@@H](C(F)(F)F)CC5)ccc4c3)CC21 (relative stereo) [Example 150, N-((5-(trifluoromethyl)-6-((cis-4-(trifluoromethyl)cyclohexyl)oxy)naphthalen-2-yl)methyl)-decahydroisoquinoline-8-carboxylic acid] | ≤ 0.25 |
| C[C@H](c1ccc2c(C(F)(F)F)c(O[C@H]3CC[C@@H](C(F)(F)F)CC3)ccc2c1)N1C2CCCC1CC(C(=O)O)C2 (single isomer, unassigned) [Example 89] | ≤ 0.1 |
| CC(c1ccc2c(C(F)(F)F)c(O[C@H]3CC[C@@H](C)CC3)ccc2c1)N1C2CCC1CC(C(=O)O)C2 (relative stereo) [Example 124, 8-(1-(6-((cis-4-Methylcyclohexyl)oxy)-5-(trifluoromethyl)naphthalen-2-yl)ethyl)-8-azabicyclo[3.2.1]octane-3-carboxylic acid] | ≤ 0.1 |
| C[C@H]1CC[C@@H](Oc2ccc3cc(C(=O)N4C5CCCC4CC(C(=O)O)C5)ccc3c2C#N)CC1 (stereo partly drawn) [Example 218, 9-(5-cyano-6-((cis-4-methylcyclohexyl)oxy)-2-naphthoyl)-9-azabicyclo[3.3.1]nonane-3-carboxylic acid] | ≤ 0.1 |
| CCC(c1ccc2c(C(F)F)c(O[C@H]3CC[C@@H](C)CC3)ccc2c1)N1C2CCC1CC(C(=O)O)C2 (stereo partly drawn) [Example 99, 8-(1-(5-(difluoromethyl)-6-((cis-4-methylcyclohexyl)oxy)naphthalen-2-yl)propyl)-8-azabicyclo[3.2.1]octane-3-carboxylic acid] | ≤ 0.1 |
| CC(c1ccc2c(C(F)F)c(O[C@H]3CC[C@@H](C)CC3)ccc2c1)N1C2CCC1CC(C(=O)O)C2 (relative stereo) [Example 133, 8-(1-(5-(difluoromethyl)-6-((cis-4-methylcyclohexyl)oxy)naphthalen-2-yl)ethyl)-8-azabicyclo[3.2.1]octane-3-carboxylic acid] | ≤ 0.1 |
| CC(F)(F)[C@H]1CC[C@@H](Oc2ccc3cc(CN4C5CCCC4CC(C(=O)O)C5)ccc3c2C(F)(F)F)CC1 (stereo partly drawn) [Example 209, 9-((6-((cis-4-(1,1-difluoroethyl)cyclohexyl)oxy)-5-(trifluoro-methyl)naphthalen-2-yl)methyl)-9-azabicyclo[3.3.1]nonane-3-carboxylic acid] | ≤ 0.1 |
| O=C(O)C1CC2CCCC(C1)N2C(=O)Cc1ccc2c(C(F)(F)F)c(O[C@H]3CC[C@@H](C(F)(F)F)CC3)ccc2c1 (stereo partly drawn) [Example 106, 9-(2-(5-(trifluoromethyl)-6-((cis-4-(trifluoromethyl)cyclohexyl)oxy)naphthalene-2-yl)acetyl)-9-azabicyclo[3.3.1]nonane-3-carboxylic acid] | ≤ 0.5 |
| CC(c1ccc2c(C(F)F)c(O[C@H]3CC[C@@H](C)CC3)ccc2c1)N1C2CCCC1CC(C(=O)O)C2 (single isomer, unassigned; enantiomer 1) [Example 138, 9-(1-(5-(difluoromethyl)-6-((cis-4-methylcyclohexyl)oxy)naphthalen-2-yl)ethyl)-9-azabicyclo[3.3.1]nonane-3-carboxylic acid, enantiomer 1] | ≤ 0.1 |
| C[C@H]1CC[C@H](Nc2cc3ccc(C(=O)N4C5CCCC4CC(C(=O)O)C5)cc3cn2)CC1 (stereo partly drawn) [Example 263, 9-(3-((trans-4-methylcyclohexyl)amino)isoquinoline-7-carbonyl)-9-azabicyclo[3.3.1]nonane-3-carboxylic acid] | ≤ 0.5 |
| CC[C@H]1CC[C@@H](Oc2ccc3cc(CN4C5CCC4CC(C(=O)O)C5)ccc3c2C(F)(F)F)CC1 (relative stereo) [Example 172, 8-((6-((cis-4-ethylcyclohexyl)oxy)-5-(trifluoromethyl)naphthalen-2-yl)methyl)-8-azabicyclo[3.2.1]octane-3-carboxylic acid] | ≤ 0.25 |
| O=C(O)C1CC2CCCC(C1)N2Cc1ccc2c(C(F)(F)F)c(N[C@H]3CC[C@@H](C(F)(F)F)CC3)ccc2c1 (stereo partly drawn) [Example 230, 9-((5-(trifluoromethyl)-6-((cis-4-(trifluoromethyl)cyclohexyl)amino)naphthalen-2-yl)methyl)-9-azabicyclo[3.3.1]nonane-3-carboxylic acid] | ≤ 0.1 |
| CC(c1ccc2c(C(F)(F)F)c(O[C@H]3CC[C@@H](C(F)(F)F)CC3)ccc2c1)N1C2CCC1CC(C(=O)O)C2 (single isomer, unassigned; enantiomer 1) [Example 173, 8-(1-(5-(trifluoromethyl)-6-((cis-4-(trifluoromethyl)cyclohexyl)oxy)naphthalen-2-yl)ethyl)-8-azabicyclo[3.2.1]octane-3-carboxylic acid, enantiomer 1] | ≤ 0.1 |
| C[C@H](c1ccc2c(Cl)c(O[C@H]3CC[C@@H](C(F)(F)F)CC3)ccc2c1)N1C2CCCC1CC(C(=O)O)C2 (single isomer, unassigned) [Example 240] | ≤ 0.1 |
| CC(C)(C)[C@H]1CC[C@@H](Nc2ncc3cc(C(=O)N4C5CCC4CC(C(=O)O)C5)ccc3c2Cl)CC1 (stereo partly drawn) [Example 272, 8-(3-((cis-4-(tert-butyl)cyclohexyl)amino)-4-chloroisoquinoline-7-carbonyl)-8-azabicyclo[3.2.1]octane-3-carboxylic acid] | ≤ 0.25 |
| CC[C@H]1CC[C@@H](Oc2ccc3nc(NC4C5CCC4CC(C(=O)O)C5)ccc3c2C(F)(F)F)CC1 (stereo partly drawn) [Example 280, 8-((6-((cis-4-ethylcyclohexyl)oxy)-5-(trifluoromethyl)quinolin-2-yl)amino)bicyclo[3.2.1]octane-3-carboxylic acid] | ≤ 0.1 |
| CC[C@H]1CC[C@@H](Oc2ccc3nc(NC4C5CCCC4CC(C(=O)O)C5)ccc3c2Cl)CC1 (stereo partly drawn) [Example 281, 9-((5-chloro-6-((cis-4-ethylcyclohexyl)oxy)quinolin-2-yl)amino)bicyclo[3.3.1]nonane-3-carboxylic acid] | ≤ 0.1 |
| CC[C@H]1CC[C@@H](Oc2ccc3cc([C@H](C)N4C5CCCC4CC(C(=O)O)C5)ccc3c2C(F)(F)F)CC1 (single isomer, unassigned) [Example 292] | ≤ 0.1 |
| CC[C@H]1CC[C@@H](Oc2ccc3cc(C(=O)N4C5CCC4CC(C(=O)O)C5)ccc3c2C(F)(F)F)CC1 (stereo partly drawn) [Example 222, 8-(6-((cis-4-ethylcyclohexyl)oxy)-5-(trifluoromethyl)-2-naphthoyl)-8-azabicyclo[3.2.1]octane-3-carboxylic acid] | ≤ 0.1 |
| O=C(O)C1CC2CCCC(C1)N2C(=O)c1ccc2c(C(F)(F)F)c(O[C@H]3CC[C@@H](C(F)(F)F)CC3)ccc2c1 (stereo partly drawn) [Example 105, 9-(5-(trifluoromethyl)-6-((cis-4-(trifluoromethyl)cyclohexyl)oxy)-2-naphthoyl)-9-azabicyclo[3.3.1]nonane-3-carboxylic acid] | ≤ 0.1 |
